The text below walks through data of patent US9845319B2, “Amide substituted thiazoles as modulators of RORyt” (Janssen Pharmaceutica NV, priority 2014, dated 2017).

pIC50, pKd: −log10 of the molar value.

Assay [1] has as its target T1, human RORγt ligand binding domain (RORγt LBD) (Homo sapiens, UniProt P51449).
T1 construct: His-tag (N); TurboTEV protease cleavage site (ENLYFQG) (N); made in house; host or cells: E. coli (pHIS1, a modified pET expression vector)
T1 sequence (P51449 with tags, fused parts or gaps): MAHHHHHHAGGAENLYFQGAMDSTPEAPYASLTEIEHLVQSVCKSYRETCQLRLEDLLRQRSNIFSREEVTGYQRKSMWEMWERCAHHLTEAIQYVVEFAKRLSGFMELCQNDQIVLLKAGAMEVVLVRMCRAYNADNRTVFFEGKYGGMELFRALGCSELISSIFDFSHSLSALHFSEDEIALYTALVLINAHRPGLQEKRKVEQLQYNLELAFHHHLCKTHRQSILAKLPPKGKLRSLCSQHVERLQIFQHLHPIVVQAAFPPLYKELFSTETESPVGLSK
Description: RORγt ThermoFluor assay. The settings on record: estimated from thermal shift concentration response. In short, it runs like this: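 Thermal shift of RORγt LBD (0.065 mg/mL) with 60 μM 1,8-ANS in 100 mM Hepes pH 7.0, NaCl, GSH, 0.002% Tween-20, heated at 1° C/min. ANS fluorescence tracked versus temperature; ΔTm relative to DMSO wells. Compounds serially diluted 1:2 from 10 mM DMSO stock.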

Another assay addresses T2, full-length human RORγt (Homo sapiens, UniProt P51449).
T2 construct: expressed in transfected cells; host or cells: HEK293T, transiently transfected with pCMV-BD-ROR
T2 sequence (P51449 1-497 isoform P51449-2): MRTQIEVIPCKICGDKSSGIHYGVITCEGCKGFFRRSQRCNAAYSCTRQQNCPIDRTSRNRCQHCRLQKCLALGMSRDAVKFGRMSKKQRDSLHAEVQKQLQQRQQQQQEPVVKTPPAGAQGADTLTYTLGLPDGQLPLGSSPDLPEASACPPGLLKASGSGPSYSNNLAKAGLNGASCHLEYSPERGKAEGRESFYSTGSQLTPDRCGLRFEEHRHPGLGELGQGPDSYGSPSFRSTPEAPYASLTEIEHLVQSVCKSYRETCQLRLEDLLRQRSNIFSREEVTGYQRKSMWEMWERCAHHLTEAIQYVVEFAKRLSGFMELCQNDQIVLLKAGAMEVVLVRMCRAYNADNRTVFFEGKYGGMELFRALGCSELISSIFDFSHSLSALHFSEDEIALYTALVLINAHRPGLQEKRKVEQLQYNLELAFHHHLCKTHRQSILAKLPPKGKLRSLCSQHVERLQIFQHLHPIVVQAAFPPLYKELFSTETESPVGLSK
Description: RORγt (full-length human) Reporter Assay, Conditions A. The note with it: for pIC50: HEK293T cells, GAL4-DBD-RORγt, luciferase, read-out: RORγt (FL) Reporter Assay A, IC50; for inhibition at 6 µM: read-out: RORγt (FL) Reporter Assay A, % inhibition @ 6 μM, 6 μM compound; for inhibition at 2 µM: read-out: RORγt (FL) Reporter Assay A, % inhibition (* at 2 μM), 2 μM compound concentration (footnote *); for inhibition at 0.67 µM: 0.67 μM compound concentration, read-out: RORγt (FL) Reporter Assay A, % inhibition (** at 0.67 μM). The format is cell-based. In short, it runs like this: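 Dual-luciferase readout after overnight (16 to 20 hours) treatment: firefly values scaled between DMSO-only and saturating reference-compound controls, then corrected by Renilla. Percent inhibition calculated against DMSO control, with IC50 derived from concentration-response plots.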

In the case of `C[C@H]1CCCCN1C(=O)c1nc(-c2nnc(CC(C)(C)C(=O)O)o2)sc1-c1ccc(C(O)(C(F)(F)F)C(F)(F)F)c(Cl)c1Cl` [Example 2/1, (S)-3-(5-(5-(2,3-Dichloro-4-(1,1,1,3,3,3-hexafluoro-2-hydroxypropan-2-yl)phenyl)-4-(2-methylpiperidine-1-carbonyl)thiazol-2-yl)-1,3,4-oxadiazol-2-yl)-2,2-dimethylpropanoic acid], the negative-log Kd (pKd) in assay [1] was 9.01. Further, on full-length human RORγt, the pIC50 is 6.64 and the inhibition at 6 µM came out at 102%.
The matching figures for `CC(C)(O)c1nnc(-c2nc(C(=O)N3CCC(F)(F)CC3)c(-c3ccc(S(=O)(=O)NC4(C(F)F)CC4)c(F)c3Cl)s2)o1` [Example 6/17, 3-Chloro-N-(1-(difluoromethyl)cyclopropyl)-4-(4-(4,4-difluoropiperidine-1-carbonyl)-2-(5-(2-hydroxypropan-2-yl)-1,3,4-oxadiazol-2-yl)thiazol-5-yl)-2-fluorobenzenesulfonamide]: 7.68, 7.00 and 105%.
Turning to `CC[C@H](NS(=O)(=O)c1ccc(-c2sc(-c3nnc(C(C)(C)O)o3)nc2C(=O)N2CCC(F)(F)CC2)c(Cl)c1F)C(F)(F)F` [Example 6/15, (S)-3-Chloro-4-(4-(4,4-difluoropiperidine-1-carbonyl)-2-(5-(2-hydroxypropan-2-yl)-1,3,4-oxadiazol-2-yl)thiazol-5-yl)-2-fluoro-N-(1,1,1-trifluorobutan-2-yl)benzenesulfonamide], the negative-log Kd (pKd) in assay [1] is 9.05. Besides, at full-length human RORγt, the pIC50 was 7.48 and the inhibition at 6 µM turned out to be 107%.
In the case of `CC(C)(O)c1nnc(-c2nc(C(=O)N3CCC(F)(F)CC3)c(-c3ccc(CC(O)(C(F)(F)F)C(F)(F)F)c(Cl)c3Cl)s2)o1` [Example 8/2, (5-(2,3-Dichloro-4-(3,3,3-trifluoro-2-hydroxy-2-(trifluoromethyl)propyl)phenyl)-2-(5-(2-hydroxypropan-2-yl)-1,3,4-oxadiazol-2-yl)thiazol-4-yl)(4,4-difluoropiperidin-1-yl)methanone], in assay [1], the negative-log Kd (pKd) is 8.77. Further, on full-length human RORγt, the negative-log IC50 (pIC50) is 7.29 and the inhibition at 2 µM was determined as 104%.
The matching figures for `CC[C@H](NS(=O)(=O)c1ccc(-c2sc(-c3nnc(C(C)(C)O)o3)nc2C(=O)N(CC)CC)c(Cl)c1Cl)C(F)(F)F` [Example 6, (S)-5-(2,3-Dichloro-4-(N-(1,1,1-trifluorobutan-2-yl)sulfamoyl)phenyl)-N,N-diethyl-2-(5-(2-hydroxypropan-2-yl)-1,3,4-oxadiazol-2-yl)thiazole-4-carboxamide]: 9.00, 7.89 and 105%.
As for `CCN(CC)C(=O)c1nc(-c2cc(C(C)(C)O)ncn2)sc1-c1ccc(S(=O)(=O)N[C@@H](C)C(F)(F)F)c(Cl)c1Cl` [Example 17/2, (S)-5-(2,3-Dichloro-4-(N-(1,1,1-trifluoropropan-2-yl)sulfamoyl)phenyl)-N,N-diethyl-2-(6-(2-hydroxypropan-2-yl)pyrimidin-4-yl)thiazole-4-carboxamide], the negative-log Kd (pKd) in assay [1] is 8.55. Also, on full-length human RORγt, the inhibition at 0.67 µM was determined as 106% and the pIC50 is 7.51.
With `C[C@H](NS(=O)(=O)c1ccc(-c2sc(-c3nnc(CC(C)(C)O)o3)nc2C(=O)N2CCC(F)(F)C2)c(Cl)c1Cl)C(F)(F)F` [Example 3/1, (S)-2,3-Dichloro-4-(4-(3,3-difluoropyrrolidine-1-carbonyl)-2-(5-(2-hydroxy-2-methylpropyl)-1,3,4-oxadiazol-2-yl)thiazol-5-yl)-N-(1,1,1-trifluoropropan-2-yl)benzenesulfonamide], in assay [1], the pKd is 7.80. For the same compound, on full-length human RORγt, the negative logarithm of the IC50 (pIC50) is 7.24 and the inhibition at 6 µM stood at 109%.
The corresponding values for `CCCN(C)C(=O)c1nc(-c2nnc(C(C)(C)O)o2)sc1-c1ccc(S(=O)(=O)N[C@@H](C)C(F)(F)F)c(Cl)c1Cl` [Example 6/6, (S)-5-(2,3-Dichloro-4-(N-(1,1,1-trifluoropropan-2-yl)sulfamoyl)phenyl)-2-(5-(2-hydroxypropan-2-yl)-1,3,4-oxadiazol-2-yl)-N-methyl-N-propylthiazole-4-carboxamide] are 7.80, 7.14 and 110%.
The matching figures for `CC[C@H](NS(=O)(=O)c1ccc(-c2sc(-c3nnc(C(C)(C)O)o3)nc2C(=O)N2CC(F)(F)C2)c(Cl)c1)C(F)(F)F` [Example 6/13, (S)-3-Chloro-4-(4-(3,3-difluoroazetidine-1-carbonyl)-2-(5-(2-hydroxypropan-2-yl)-1,3,4-oxadiazol-2-yl)thiazol-5-yl)-N-(1,1,1-trifluorobutan-2-yl)benzenesulfonamide]: 6.23, 5.96 and 90%.
The matching figures for `C[C@H](NS(=O)(=O)c1ccc(-c2sc(-c3nnc(C(C)(C)O)o3)nc2C(=O)N2CC(F)C[C@@H]2C)c(C(F)F)c1F)C(F)(F)F` (stereo partly drawn) [Example 6/21, 3-(Difluoromethyl)-2-fluoro-4-(4-((2S)-4-fluoro-2-methylpyrrolidine-1-carbonyl)-2-(5-(2-hydroxypropan-2-yl)-1,3,4-oxadiazol-2-yl)thiazol-5-yl)-N—((S)-1,1,1-trifluoropropan-2-yl)benzenesulfonamide]: 6.57, 6.39 and 102%.
Consider `C[C@H](NS(=O)(=O)c1ccc(-c2sc(-c3nnco3)nc2C(=O)N2CCC(F)(F)CC2)c(Cl)c1Cl)C(F)(F)F` [Example 4/5, (S)-2,3-Dichloro-4-(4-(4,4-difluoropiperidine-1-carbonyl)-2-(1,3,4-oxadiazol-2-yl)thiazol-5-yl)-N-(1,1,1-trifluoropropan-2-yl)benzenesulfonamide], for which, in assay [1], the pKd was 7.92. At full-length human RORγt, the negative-log IC50 (pIC50) was 7.28 and the inhibition at 6 µM was determined as 110%.
The corresponding values for `CC(C)(O)Cc1nnc(-c2nc(C(=O)N3CC[C@H](F)C3)c(-c3ccc(C(O)(C(F)(F)F)C(F)(F)F)c(Cl)c3Cl)s2)o1` [Example 3/6, (S)-(5-(2,3-Dichloro-4-(1,1,1,3,3,3-hexafluoro-2-hydroxypropan-2-yl)phenyl)-2-(5-(2-hydroxy-2-methylpropyl)-1,3,4-oxadiazol-2-yl)thiazol-4-yl)(3-fluoropyrrolidin-1-yl)methanone] are 7.12, 6.43 and 104%.
Take `CC(C)(O)Cc1nnc(-c2nc(C(=O)N3CCC(F)CC3)c(-c3ccc(C(O)(C(F)(F)F)C(F)(F)F)c(Cl)c3Cl)s2)o1` [Example 3/4, (5-(2,3-Dichloro-4-(1,1,1,3,3,3-hexafluoro-2-hydroxypropan-2-yl)phenyl)-2-(5-(2-hydroxy-2-methylpropyl)-1,3,4-oxadiazol-2-yl)thiazol-4-yl)(4-fluoropiperidin-1-yl)methanone]: the pKd in assay [1] was 7.62. On full-length human RORγt, the negative-log IC50 (pIC50) is 7.30 and the inhibition at 2 µM came to 106%.
As for `COC1(c2nnc(-c3nc(C(=O)N4CCC(F)(F)CC4)c(-c4ccc(S(=O)(=O)N[C@@H](C)C(F)(F)F)c(Cl)c4Cl)s3)o2)CC1` [Example 1/2, (S)-2,3-Dichloro-4-(4-(4,4-difluoropiperidine-1-carbonyl)-2-(5-(1-methoxycyclopropyl)-1,3,4-oxadiazol-2-yl)thiazol-5-yl)-N-(1,1,1-trifluoropropan-2-yl)benzenesulfonamide], the pKd in assay [1] was 9.38. For the same compound, at full-length human RORγt, the inhibition at 0.67 µM came to 105% and the negative-log IC50 (pIC50) was 7.96.
